Results: patent US20250074891A1 (Anaxis Pharma Pty Ltd., priority 2021, published 2025)
Read-outs that look alike come from different tables or passages of the source.

Key:
MLKL (full length) = MLKL (full length) (Homo sapiens (Human), UniProt Q8NB16); test: KINOMEscan binding assay, MLKL (full length)
Method: (§1) Kinase assays. For most assays, kinase-tagged T7 phage strains were grown in parallel in 24-well blocks in an E. coli host derived from the BL21 strain. E. coli were grown to log-phase and infected with T7 phage from a frozen stock (multiplicity of infection=0.4) and incubated with shaking at 32° C. until lysis (90-150 minutes).
(§2) The Hill Slope was set to −1.

[1] = test system: U937 human histiocytic leukemia cell line; test: Cellular assay: inhibition of TSQ induced necroptosis (CellTitre-Glo); conditions: U937 cells, TSQ cocktail, 48 hours, read-out: Inhibition of TSQ-induced necroptosis (IC50 cell-based assay)
Procedure, shortened: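 U937 cells (20,000/well) pre-dosed with compound (10-point, 1:3 from 36 μM, 0.3% DMSO), then TSQ (hTNF-Fc 100 ng/ml, Smac mimetic 500 nM, Q-VD-OPh 10 μM) for 48 h at 37 °C. Viability by CellTiter-Glo luminescence, normalised to DMSO (100%) and DMSO+TSQ (0%); IC50 from 4-parameter fit.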

U937 cells = test: Counter screen: cell viability without TSQ cocktail (off-target effect); set-up: species or system human
Method: Counter screen: In parallel, all compounds were tested for their ability to affect cell viability. The same U937 cells were treated with compound in DMSO without the TSQ cocktail. This counter screen enabled evaluation of off-target effects. In this case, cell viability was measured by CelltiterGlo.

endogenous MLKL in U937 = endogenous MLKL in U937 (Homo sapiens (Human), UniProt Q8NB16); test: Degradation assay: degradation of endogenous MLKL in human cells (Western blot); conditions: 24 h incubation, read-out: Degradation of endogenous MLKL in U937 (DC50 cell-based assay in μM)
Sequence of endogenous MLKL in U937 (Q8NB16 whole entry): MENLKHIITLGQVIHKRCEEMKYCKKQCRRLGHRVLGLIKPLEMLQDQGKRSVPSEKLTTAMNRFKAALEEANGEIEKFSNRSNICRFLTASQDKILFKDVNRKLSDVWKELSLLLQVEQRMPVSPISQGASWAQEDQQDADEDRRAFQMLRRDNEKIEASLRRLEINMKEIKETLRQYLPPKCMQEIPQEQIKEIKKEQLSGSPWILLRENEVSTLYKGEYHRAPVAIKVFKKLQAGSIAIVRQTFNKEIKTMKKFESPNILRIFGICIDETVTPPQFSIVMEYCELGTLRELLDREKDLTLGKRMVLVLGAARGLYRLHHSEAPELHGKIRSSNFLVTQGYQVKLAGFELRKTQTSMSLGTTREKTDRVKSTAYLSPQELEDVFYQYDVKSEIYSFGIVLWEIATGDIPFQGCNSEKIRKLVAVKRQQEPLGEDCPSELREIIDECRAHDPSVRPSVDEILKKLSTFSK
Method: DEGRADATION ASSAY: Screening Compounds Procedure to Evaluate the Activity of Compounds in Degrading Endogenous MLKL in Human Cell
The human monocyte cell line (U937) was seeded on the day of the experiment in a 24-well plate at a cell density of 5*10^5 cells per well in a volume of 0.5 mL per well.
The compound was diluted in DMSO with a starting concentration of 10 mM and titrated stepwise with a dilution of 1:5. 0.5 μL of the compound dilution was added to the appropriate well to achieve a final concentration of 10; 2; 0.4; 0.08 and 0.016 μM. A DMSO only well was included as control.
The cells were incubated for 24 h in the presence of the compound at 37° C. and 10% CO2.
After the 24 h incubation period, the medium was removed and cells washed with 0.5 mL PBS. The cells were then lysed directly in 60 μL of 1×SDS gel loading buffer.
The cell lysate was heat-denatured at […] for 10 min. 10 μL of lysate per well were run on 18-well 4-15% Criterion TGX stain free gels (BIO-RAD). The proteins were then transferred onto nitrocellulose membrane with a wet transfer protocol in the Criterion Blotter (BIO-RAD).
Membranes were blocked with 5% skim milk in TBST. Primary antibody against MLKL (clone 3H1, MABC604 Merck) was used at 1:2000 dilution in TBST with 1% BSA and left shaking over night at 4° C. After washes with TBST, the membranes were incubated with goat anti-rat IgG HRP-conjugated antibody (Southern Biotech) in 1% skim milk TBST at 1:10000 dilution for 1 h at room temperature. After TBST washes the bands were imaged on the ChemiDoc MP Imaging Systm (BIO-RAD) with Immobilion Western Chemiluminescent HRP Substrate Forte (Millipore). The loading control GAPDH was probed for with rabbit anti-GAPDH (CST 14C10) at 1:2000 dilution in 1% BSA TBST over night at 4° C. TBST washes were followed by incubation with goat anti-rabbit IgG HRP-conjugated antibody (Southern Biotech) in 1% skim milk TBST at 1:10000 dilution for 1 h at room temperature followed by TBST washes. The signal was detected as described above.
The band intensity was measured in the ImageLab Software (BIO-RAD) and the MLKL values adjusted for loading with GAPDH. The percentage of degradation was calculated by normalizing the compound treated values to the DMSO only control.

RIP1 = RIP1 (Homo sapiens (Human), UniProt Q13546); test: KINOMEscan binding assay, RIP1; conditions: Table 35
Sequence of RIP1 (Q13546 whole entry): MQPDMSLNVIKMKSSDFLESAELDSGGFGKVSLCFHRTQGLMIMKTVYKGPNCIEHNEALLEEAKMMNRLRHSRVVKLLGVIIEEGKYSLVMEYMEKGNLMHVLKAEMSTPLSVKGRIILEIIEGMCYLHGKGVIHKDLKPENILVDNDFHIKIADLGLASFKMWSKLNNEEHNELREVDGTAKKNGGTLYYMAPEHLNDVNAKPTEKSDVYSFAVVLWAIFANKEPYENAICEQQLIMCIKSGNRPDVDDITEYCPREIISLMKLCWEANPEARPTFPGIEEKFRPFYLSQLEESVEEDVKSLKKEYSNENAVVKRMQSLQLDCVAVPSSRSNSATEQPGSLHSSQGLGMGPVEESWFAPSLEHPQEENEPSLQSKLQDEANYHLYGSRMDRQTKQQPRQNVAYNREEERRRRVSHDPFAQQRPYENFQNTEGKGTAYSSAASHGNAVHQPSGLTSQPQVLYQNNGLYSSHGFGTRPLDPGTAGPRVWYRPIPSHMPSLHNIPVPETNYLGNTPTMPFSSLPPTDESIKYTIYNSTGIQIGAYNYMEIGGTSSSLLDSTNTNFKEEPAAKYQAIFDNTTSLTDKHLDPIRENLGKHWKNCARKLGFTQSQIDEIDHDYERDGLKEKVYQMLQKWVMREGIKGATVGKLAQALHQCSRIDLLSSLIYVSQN

RIP3 = RIP3 (Homo sapiens (Human), UniProt Q9Y572); test: KINOMEscan binding assay, RIP3; conditions: Table 35
Sequence of RIP3 (Q9Y572 whole entry): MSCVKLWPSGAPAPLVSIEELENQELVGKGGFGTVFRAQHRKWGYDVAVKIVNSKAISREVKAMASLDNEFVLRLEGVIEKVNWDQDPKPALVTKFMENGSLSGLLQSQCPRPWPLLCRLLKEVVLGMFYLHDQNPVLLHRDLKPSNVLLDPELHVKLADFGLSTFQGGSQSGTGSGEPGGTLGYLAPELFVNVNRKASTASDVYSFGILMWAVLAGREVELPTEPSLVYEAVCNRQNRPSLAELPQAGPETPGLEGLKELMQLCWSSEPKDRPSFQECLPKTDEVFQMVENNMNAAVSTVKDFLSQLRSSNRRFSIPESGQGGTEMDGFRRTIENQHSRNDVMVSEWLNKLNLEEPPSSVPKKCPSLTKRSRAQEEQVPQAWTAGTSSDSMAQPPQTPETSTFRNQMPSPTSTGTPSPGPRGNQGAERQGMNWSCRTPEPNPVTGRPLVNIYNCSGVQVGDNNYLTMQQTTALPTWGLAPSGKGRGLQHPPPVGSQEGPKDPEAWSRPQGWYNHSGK
Method: as §1, §2

[2] = Homo sapiens, U-937, Table 38, read-out: Off-target effect (IC50 cell-based assay)
[3] = Homo sapiens, U-937, Table 37, read-out: Off-target effect (IC50 cell-based assay)

Sequence of MLKL (full length) (Q8NB16 whole entry): as the sequence (Q8NB16 whole entry) above

SMILES	Kd (MLKL (full length); Table 36) [µM]	IC50 ([1]; Homo sapiens, U-937, Table 38) [µM]	IC50 (U937 cells; [2]) [µM]	DC50 (endogenous MLKL in U937) [µM]	Kd (MLKL (full length); Table 35) [µM]	Kd (RIP1) [µM]	Kd (RIP3) [µM]	IC50 ([1]; Homo sapiens, U-937, Table 37) [µM]	IC50 (U937 cells; [3]) [µM]	IC50 ([1]; Table 37) [µM]	IC50 (U937 cells; Table 37, read-out: Off-target effect (IC50 cell-based assay)) [µM]
CCS(=O)(=O)Nc1ccc(-c2n[nH]c(Nc3ccc(C(=O)NCC(=O)N[C@@H](C(=O)N4C[C@@H](O)C[C@@H]4C(=O)NCc4ccc(-c5scnc5C)cc4)C(C)(C)C)cn3)c2C(N)=O)cc1O[C@H](C)c1ccc(F)cc1 (stereo in doubt) [Compound 1026, 3-{4-ethanesulfonamido-3-[(1R)-1-(4-fluorophenyl)ethoxy]phenyl}-5-({5-[({[(2R)-1-[(2R,4S)-4-hydroxy-2-({[4-(4-methyl-1,3-thiazol-5-yl)phenyl]methyl}carbamoyl)pyrrolidin-1-yl]-3,3-dimethyl-1-oxobutan-2-yl]carbamoyl}methyl)carbamoyl]pyridin-2-yl}amino)-1H-pyrazole-4-carboxamide]	< 0.01	1 to 10	> 10	1 to 10							
CCS(=O)(=O)Nc1ccc(-c2n[nH]c(Nc3ccc(C(=O)NCCCCC(=O)N[C@@H](C(=O)N4C[C@@H](O)C[C@@H]4C(=O)NCc4ccc(-c5scnc5C)cc4)C(C)(C)C)cn3)c2C(N)=O)cc1OC(C)c1ccc(F)cc1 (stereo in doubt) [Compound 1029, 3-{4-ethanesulfonamido-3-[(1R)-1-(4-fluorophenyl)ethoxy]phenyl}-5-({5-[(4-{[(2R)-1-[(2R,4S)-4-hydroxy-2-({[4-(4-methyl-1,3-thiazol-5-yl)phenyl]methyl}carbamoyl)pyrrolidin-1-yl]-3,3-dimethyl-1-oxobutan-2-yl]carbamoyl}butyl)carbamoyl]pyridin-2-yl}amino)-1H-pyrazole-4-carboxamide]	< 0.01	< 1	> 10	1 to 10							
NC(=O)c1c(-c2ccc(NS(=O)(=O)Cc3cccc(Cl)c3)cc2)n[nH]c1Nc1cccc(C(F)(F)F)n1 [Compound 9, 3-(4-(((3-chlorophenyl)methyl)sulfonamido)phenyl)-5-((6-(trifluoromethyl)pyridin-2-yl)amino)-1H-pyrazole-4-carboxamide]					< 0.01	> 30	> 30	0.01 to 1	> 30		
CCS(=O)(=O)Nc1ccc(-c2n[nH]c(Nc3cncc(C)n3)c2C(N)=O)cc1 [Compound 84, 3-(4-(ethylsulfonamido)phenyl)-5-((6-methylpyrazin-2-yl)amino)-1H-pyrazole-4-carboxamide]					< 0.01	> 30	1 to 30	1 to 30	> 30		
CCS(=O)(=O)Nc1ccc(-c2c(C(N)=O)c(Nc3cnccn3)nn2C)cc1 [Compound 222, 5-(4-(ethylsulfonamido)phenyl)-1-methyl-3-(pyrazin-2-ylamino)-1H-pyrazole-4-carboxamide]					< 0.01	> 30	> 30	1 to 30	> 30		
C[C@H](Oc1cc(-c2n[nH]c(Nc3cnccn3)c2C(N)=O)ccc1NS(=O)(=O)CC(F)(F)F)c1cccc(F)c1 [Compound 265, 3-{3-[(1S)-1-(3-fluorophenyl)ethoxy]-4-(2,2,2-trifluoroethanesulfonamido)phenyl}-5-[(pyrazin-2-yl)amino]-1H-pyrazole-4-carboxamide]					< 0.01	> 30	> 30	1 to 30	> 30		
Cc1cc(Nc2[nH]nc(-c3ccc(NS(=O)(=O)C(F)F)c(O[C@@H](C)c4ccc(F)cc4)c3)c2C(N)=O)nn1C [Compound 285, (S)-3-(4-((difluoromethyl)sulfonamido)-3-(1-(4-fluorophenyl)ethoxy)phenyl)-5-((1,5-dimethyl-1H-pyrazol-3-yl)amino)-1H-pyrazole-4-carboxamide]					< 0.01	> 30	> 30	< 0.01	> 30		
Cc1cnc(Nc2[nH]nc(-c3ccc(NS(=O)(=O)C(F)F)c(OCc4ccc(F)c(F)c4)c3)c2C(N)=O)cn1 [Compound 291, 3-(3-((3,4-difluoro-benzyl)oxy)-4-((difluoro-methyl)sulfon-amido)phenyl)-5-((5-methyl-pyrazin-2-yl)amino)-1H-pyrazole-4-carboxamide]					< 0.01	> 30	> 30			< 0.01	1 to 30
Cc1ncsc1-c1ccc(CNC(=O)[C@@H]2C[C@@H](O)CN2C(=O)[C@@H](NC(=O)CCCCOc2ccc(Nc3[nH]nc(-c4ccc(NS(=O)(=O)C(F)F)c(OCc5ccc(F)cc5)c4)c3C(N)=O)nc2)C(C)(C)C)cc1 [Compound 1025, 3-[4-(difluoromethanesulfonamido)-3-[(4-fluorophenyl)methoxy]phenyl]-5-{[5-(4-{[(2S)-1-[(2S,4R)-4-hydroxy-2-({[4-(4-methyl-1,3-thiazol-5-yl)phenyl]methyl}carbamoyl)pyrrolidin-1-yl]-3,3-dimethyl-1-oxobutan-2-yl]carbamoyl}butoxy)pyridin-2-yl]amino}-1H-pyrazole-4-carboxamide]		< 1	> 10	< 1							
Cc1ncsc1-c1ccc(CNC(=O)[C@@H]2C[C@@H](O)CN2C(=O)[C@@H](NC(=O)c2ccc(COc3ccc(Nc4[nH]nc(-c5ccc(NS(=O)(=O)C(F)F)c(O[C@@H](C)c6ccc(F)cc6)c5)c4C(N)=O)nc3)cc2)C(C)(C)C)cc1 [Compound 1030, 3-[4-(difluoromethanesulfonamido)-3-[(1S)-1-(4-fluorophenyl)ethoxy]phenyl]-5-({5-[(4-{[(2S)-1-[(2S,4R)-4-hydroxy-2-({[4-(4-methyl-1,3-thiazol-5-yl)phenyl]methyl}carbamoyl)pyrrolidin-1-yl]-3,3-dimethyl-1-oxobutan-2-yl]carbamoyl}phenyl)methoxy]pyridin-2-yl}amino)-1H-pyrazole-4-carboxamide]		< 1	> 10	< 1							
CCS(=O)(=O)Nc1ccc(-c2n[nH]c(Nc3ccc(C(=O)OCCCCC(=O)N[C@H](C(=O)N4C[C@H](O)C[C@H]4C(=O)NCc4ccc(-c5scnc5C)cc4)C(C)(C)C)cn3)c2C(N)=O)cc1 [Compound 1060, 4-{[(2S)-1-[(2S,4R)-4-hydroxy-2-({[4-(4-methyl-1,3-thiazol-5-yl)phenyl]methyl}carbamoyl)pyrrolidin-1-yl]-3,3-dimethyl-1-oxobutan-2-yl]carbamoyl}butyl 6-{[4-carbamoyl-3-(4-ethanesulfonamidophenyl)-1H-pyrazol-5-yl]amino}pyridine-3-carboxylate]	0.01 to 1	< 1	> 10								
